Experiments:
rice = test: Test B flood; assay type: in vivo, Oryza sativa; conditions: 250 g ai/ha, visual rating on 0 to 100 scale (0 no effect, 100 complete control), 13 to 15 days
Procedure, shortened: (§1)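 Plants were grown to the 2-leaf stage and pots flooded to 3 cm above soil. Compounds were applied directly into the paddy water, with depth kept for the test. After 13–15 days in greenhouse, response was rated visually against controls on a 0 (no effect) to 100 (complete control) scale.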

morningglory [1] = test: Test C preemergence; assay type: in vivo, Ipomoea coccinea; conditions: for Morningglory plant response rating / Plant response rating, Morningglory: preemergence; for Plant response rating, Morningglory: 125 g ai/ha, scale 0 to 100, 0 = no effect, 100 = complete control
Procedure, shortened: (§2)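 Seeds sown in loam–sand blend and treated preemergence with test chemicals in non-phytotoxic solvent with surfactant; postemergence plants in peat-based medium, treated at 2–18 cm (1- to 4-leaf stage). Greenhouse 13 to 15 days, then visual rating versus controls, 0 (no effect) to 100 (complete control).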

barnyardgrass [2] = test: Test B flood; assay type: in vivo, Echinochloa crus-galli; conditions: 250 g ai/ha, visual rating on 0 to 100 scale (0 no effect, 100 complete control), 13 to 15 days
Procedure, shortened: as §1

nutsedge, yellow = test: Test C postemergence; assay type: in vivo, Cyperus esculentus; conditions: for Plant response rating (scale of 0 to 100 where 0 is no effect and 100 is complete control), Nutsedge, Yellow: Postemergence, 31 g ai/ha, visually evaluated after 13 to 15 days; for Nutsedge, Yellow plant response rating / Plant response rating, Nutsedge, Yellow: postemergence; for Nutsedge, Yellow plant response rating: 62 g ai/ha, scale 0 to 100
Procedure, shortened: as §2

barnyardgrass [3] = test: Test C preemergence; assay type: in vivo, Echinochloa crus-galli; conditions: for Barnyardgrass plant response rating / Plant response rating, Barnyardgrass: preemergence; for Plant response rating, Barnyardgrass: 125 g ai/ha, scale 0 to 100, 0 = no effect, 100 = complete control
Procedure, shortened: as §2

foxtail, giant [4] = test: Test A postemergence; assay type: in vivo, Setaria faberii
Procedure, shortened: (§3)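 Visual injury rating, 0–100 (0 no effect, 100 complete control), vs untreated controls ~10 days after treatment in greenhouse. Pre: directed soil spray on seeded loam/sand. Post: 2–10 cm plants, 1–2 leaf stage. Formulation: non-phytotoxic solvent mix + surfactant.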

pigweed = test: Test C preemergence; assay type: in vivo, Amaranthus retroflexus; conditions: for Pigweed plant response rating / Plant response rating, Pigweed: preemergence; for Plant response rating, Pigweed: 125 g ai/ha, scale 0 to 100, 0 = no effect, 100 = complete control
Procedure, shortened: as §2

crabgrass, large [5] = test: Test A postemergence; assay type: in vivo, Digitaria sanguinalis
Procedure, shortened: as §3

barnyardgrass [6] = test: Test A postemergence; assay type: in vivo, Echinochloa crus-galli
Procedure, shortened: as §3

galium = test: Test C postemergence; assay type: in vivo, Galium aparine; conditions: for Plant response rating (scale of 0 to 100 where 0 is no effect and 100 is complete control), Galium: Postemergence, 31 g ai/ha, visually evaluated after 13 to 15 days; for Galium plant response rating / Plant response rating, Galium: postemergence; for Galium plant response rating: 62 g ai/ha, scale 0 to 100
Procedure, shortened: as §2

morningglory [7] = test: Test A postemergence; assay type: in vivo, Ipomoea spp.; conditions: Postemergence
Procedure, shortened: as §3

crabgrass, large [8] = test: Test C postemergence; assay type: in vivo, Digitaria sanguinalis; conditions: for Plant response rating (scale of 0 to 100 where 0 is no effect and 100 is complete control), Crabgrass, Large: Postemergence, 31 g ai/ha, visually evaluated after 13 to 15 days; for Crabgrass, Large plant response rating / Plant response rating, Crabgrass, Large: postemergence; for Crabgrass, Large plant response rating: 62 g ai/ha, scale 0 to 100
Procedure, shortened: as §2

corn = test: Test A preemergence; assay type: in vivo, Zea mays; conditions: preemergence; for Corn plant response rating (0 to 100 scale): 125 g ai/ha, visual injury approx. 10 days after treatment; for Corn plant response rating: 500 g ai/ha, visual injury after approx. 10 days, 0 to 100 scale (0 no effect, 100 complete control)
Procedure, shortened: as §3

foxtail, giant [9] = test: Test A preemergence; assay type: in vivo, Setaria faberii; conditions: preemergence; for Foxtail, Giant plant response rating (0 to 100 scale): visual injury approx. 10 days after treatment
Procedure, shortened: as §3

[10] = 31 g ai/ha, visual rating, scale 0 to 100 (0 no effect, 100 complete control), 13 to 15 days
[11] = 62 g ai/ha, scale 0 to 100 (0 no effect, 100 complete control), 13 to 15 days
[12] = 250 g ai/ha, scale 0 to 100, 0 is no effect, 100 is complete control
[13] = 250 g ai/ha, scale 0 to 100 (0 no effect, 100 complete control)
[14] = 125 g ai/ha, scale 0 to 100, 0 no effect, 100 complete control
[15] = Postemergence, 500 g ai/ha, 0 to 100 scale (0 no effect, 100 complete control)
[16] = postemergence, 125 g ai/ha, about 10 days, visual rating on 0 to 100 scale (0 no effect, 100 complete control)
[17] = 125 g ai/ha, 0 to 100 scale, 0 no effect, 100 complete control
[18] = 500 g ai/ha, 0 to 100 scale (0 no effect, 100 complete control)
[19] = 500 g ai/ha, visual injury after approx. 10 days, 0 to 100 scale (0 no effect, 100 complete control)

Structure (SMILES): CCCc1cc(C(=O)NC(C)C)nn1Cc1ccnc(C(F)(F)F)c1 [Compound 186]
- Plant response rating, Rice (rice): 75
- Morningglory plant response rating (morningglory [1]; [10]): 98
- Morningglory plant response rating (morningglory [1]; [11]): 70
- Plant response rating, Morningglory (morningglory [1]; 13 to 15 days): 100
- Morningglory plant response rating (morningglory [1]; [12]): 100
- Plant response rating, Barnyardgrass (barnyardgrass [2]): 75
- Plant response rating (scale of 0 to 100 where 0 is no effect and 100 is complete control), Nutsedge, Yellow (nutsedge, yellow): 5
- Nutsedge, Yellow plant response rating (nutsedge, yellow): 5
- Plant response rating, Nutsedge, Yellow (nutsedge, yellow; [13]): 15
- Plant response rating, Nutsedge, Yellow (nutsedge, yellow; [14]): 5
- Barnyardgrass plant response rating (barnyardgrass [3]; [10]): 100
- Barnyardgrass plant response rating (barnyardgrass [3]; [11]): 100
- Plant response rating, Barnyardgrass (barnyardgrass [3]; 13 to 15 days): 100
- Barnyardgrass plant response rating (barnyardgrass [3]; [12]): 100
- Foxtail, Giant plant response rating (foxtail, giant [4]; [15]): 90
- Foxtail, Giant plant response rating (foxtail, giant [4]; [16]): 90
- Pigweed plant response rating (pigweed; [10]): 100
- Pigweed plant response rating (pigweed; [11]): 100
- Plant response rating, Pigweed (pigweed; 13 to 15 days): 100
- Pigweed plant response rating (pigweed; [12]): 100
- Crabgrass, Large plant response rating (crabgrass, large [5]; [15]): 90
- Crabgrass, Large plant response rating (crabgrass, large [5]; [16]): 90
- Barnyardgrass plant response rating (barnyardgrass [6]; [15]): 90
- Barnyardgrass plant response rating (barnyardgrass [6]; [16]): 90
- Plant response rating (scale of 0 to 100 where 0 is no effect and 100 is complete control), Galium (galium): 70
- Galium plant response rating (galium): 80
- Plant response rating, Galium (galium; [13]): 100
- Plant response rating, Galium (galium; [14]): 75
- Morningglory plant response rating (morningglory [7]; [17]): 0
- Morningglory plant response rating (morningglory [7]; [18]): 100
- Plant response rating (scale of 0 to 100 where 0 is no effect and 100 is complete control), Crabgrass, Large (crabgrass, large [8]): 5
- Crabgrass, Large plant response rating (crabgrass, large [8]): 5
- Plant response rating, Crabgrass, Large (crabgrass, large [8]; [13]): 80
- Plant response rating, Crabgrass, Large (crabgrass, large [8]; [14]): 20
- Corn plant response rating (0 to 100 scale) (corn): 80
- Corn plant response rating (corn): 100
- Foxtail, Giant plant response rating (0 to 100 scale) (foxtail, giant [9]; 125 g ai/ha): 100
- Foxtail, Giant plant response rating (foxtail, giant [9]; [19]): 100

Structure (SMILES): CCCc1cc(C(=O)NC2CC2)nn1Cc1cc(C(F)(F)F)nn1C [Compound 202]
- Plant response rating, Rice (rice): 30
- Morningglory plant response rating (morningglory [1]; [10]): 90
- Morningglory plant response rating (morningglory [1]; [11]): 100
- Plant response rating, Morningglory (morningglory [1]; 13 to 15 days): 100
- Morningglory plant response rating (morningglory [1]; [12]): 100
- Plant response rating, Barnyardgrass (barnyardgrass [2]): 30
- Plant response rating (scale of 0 to 100 where 0 is no effect and 100 is complete control), Nutsedge, Yellow (nutsedge, yellow): 0
- Nutsedge, Yellow plant response rating (nutsedge, yellow): 5
- Plant response rating, Nutsedge, Yellow (nutsedge, yellow; [13]): 20
- Plant response rating, Nutsedge, Yellow (nutsedge, yellow; [14]): 10
- Barnyardgrass plant response rating (barnyardgrass [3]; [10]): 95
- Barnyardgrass plant response rating (barnyardgrass [3]; [11]): 100
- Plant response rating, Barnyardgrass (barnyardgrass [3]; 13 to 15 days): 100
- Barnyardgrass plant response rating (barnyardgrass [3]; [12]): 100
- Foxtail, Giant plant response rating (foxtail, giant [4]; [15]): 90
- Foxtail, Giant plant response rating (foxtail, giant [4]; [16]): 90
- Pigweed plant response rating (pigweed; [10]): 100
- Pigweed plant response rating (pigweed; [11]): 100
- Plant response rating, Pigweed (pigweed; 13 to 15 days): 100
- Pigweed plant response rating (pigweed; [12]): 100
- Crabgrass, Large plant response rating (crabgrass, large [5]; [15]): 100
- Crabgrass, Large plant response rating (crabgrass, large [5]; [16]): 90
- Barnyardgrass plant response rating (barnyardgrass [6]; [15]): 100
- Barnyardgrass plant response rating (barnyardgrass [6]; [16]): 90
- Plant response rating (scale of 0 to 100 where 0 is no effect and 100 is complete control), Galium (galium): 65
- Galium plant response rating (galium): 85
- Plant response rating, Galium (galium; [13]): 95
- Plant response rating, Galium (galium; [14]): 90
- Morningglory plant response rating (morningglory [7]; [17]): 70
- Morningglory plant response rating (morningglory [7]; [18]): 90
- Plant response rating (scale of 0 to 100 where 0 is no effect and 100 is complete control), Crabgrass, Large (crabgrass, large [8]): 5
- Crabgrass, Large plant response rating (crabgrass, large [8]): 10
- Plant response rating, Crabgrass, Large (crabgrass, large [8]; [13]): 70
- Plant response rating, Crabgrass, Large (crabgrass, large [8]; [14]): 25
- Corn plant response rating (0 to 100 scale) (corn): 10
- Corn plant response rating (corn): 40
- Foxtail, Giant plant response rating (0 to 100 scale) (foxtail, giant [9]; 125 g ai/ha): 100
- Foxtail, Giant plant response rating (foxtail, giant [9]; [19]): 100

Structure (SMILES): CCCc1cc(C(=O)NCC(F)(F)F)nn1Cc1ccnc(OC(F)F)c1 [Compound 127]
- Plant response rating, Rice (rice): 20
- Plant response rating (scale of 0 to 100), Morningglory (morningglory [1]; Preemergence, 250 g ai/ha): 100
- Morningglory plant response rating (morningglory [1]; [10]): 60
- Morningglory plant response rating (morningglory [1]; [11]): 55
- Plant response rating, Morningglory (morningglory [1]; 13 to 15 days): 100
- Plant response rating, Barnyardgrass (barnyardgrass [2]): 70
- Plant response rating (scale of 0 to 100 where 0 is no effect and 100 is complete control), Nutsedge, Yellow (nutsedge, yellow): 5
- Nutsedge, Yellow plant response rating (nutsedge, yellow): 5
- Plant response rating, Nutsedge, Yellow (nutsedge, yellow; [13]): 25
- Plant response rating, Nutsedge, Yellow (nutsedge, yellow; [14]): 15
- Plant response rating (scale of 0 to 100), Barnyardgrass (barnyardgrass [3]; Preemergence, 250 g ai/ha): 95
- Barnyardgrass plant response rating (barnyardgrass [3]; 31 g ai/ha, scale 0 to 100 (0 no effect, 100 complete control), 13 to 15 days): 45
- Barnyardgrass plant response rating (barnyardgrass [3]; [11]): 60
- Plant response rating, Barnyardgrass (barnyardgrass [3]; 13 to 15 days): 95
- Foxtail, Giant plant response rating (foxtail, giant [4]; [15]): 90
- Foxtail, Giant plant response rating (foxtail, giant [4]; [16]): 90
- Plant response rating (scale of 0 to 100), Pigweed (pigweed; Preemergence, 250 g ai/ha): 100
- Pigweed plant response rating (pigweed; [10]): 100
- Pigweed plant response rating (pigweed; [11]): 100
- Plant response rating, Pigweed (pigweed; 13 to 15 days): 100
- Barnyardgrass plant response rating (barnyardgrass [6]; [15]): 90
- Barnyardgrass plant response rating (barnyardgrass [6]; [16]): 90
- Plant response rating (scale of 0 to 100 where 0 is no effect and 100 is complete control), Galium (galium): 70
- Galium plant response rating (galium): 70
- Plant response rating, Galium (galium; [13]): 80
- Plant response rating, Galium (galium; [14]): 70
- Plant response rating (scale of 0 to 100 where 0 is no effect and 100 is complete control), Crabgrass, Large (crabgrass, large [8]): 10
- Crabgrass, Large plant response rating (crabgrass, large [8]): 10
- Plant response rating, Crabgrass, Large (crabgrass, large [8]; [13]): 55
- Plant response rating, Crabgrass, Large (crabgrass, large [8]; [14]): 20
- Foxtail, Giant plant response rating (foxtail, giant [9]; 125 g ai/ha, visual injury, 0 to 100 scale, approx. 10 days): 90
- Foxtail, Giant plant response rating (foxtail, giant [9]; [19]): 100

From patent US20150105252A1, “SUBSTITUTED PYRAZOLES AS HERBICIDES” (E I DU PONT DE NEMOURS AND COMPANY, priority 2013, published 2015)
